# Laboratory results: patent US9434711B2 (Janssen Pharmaceutica, NV, priority 2007, dated 2016)
# Target: canine TRPM8 (Canis lupus familiaris, UniProt Q1A7N1)
# Test: In Vitro Canine TRPM8 Functional Assay (Ca2+ fluorescence, icilin activation)
# Format: cell-based
# Settings: for IC50: HEK293 cells stably expressing canine TRPM8, icilin activation, eight-point dose-response, read-out: IC50; for inhibition at 0.2 µM / % Inh @ 0.2 (μM): compound at 0.2 μM, canine TRPM8, icilin activation; for inhibition at 0.2 µM: read-out: % Inh @ 0.2
# Outline: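 HEK293 cells stably expressing canine TRPM8 loaded with Calcium 3 dye; compound added and Ca2+ fluorescence monitored 5 min before icilin at a final level giving ~80% maximal response, read on FLIPR or FDSS. EC50 or IC50 from eight-point dose-response, quadruplicate wells per point.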
# Sequence of canine TRPM8 (Q1A7N1 1-1104): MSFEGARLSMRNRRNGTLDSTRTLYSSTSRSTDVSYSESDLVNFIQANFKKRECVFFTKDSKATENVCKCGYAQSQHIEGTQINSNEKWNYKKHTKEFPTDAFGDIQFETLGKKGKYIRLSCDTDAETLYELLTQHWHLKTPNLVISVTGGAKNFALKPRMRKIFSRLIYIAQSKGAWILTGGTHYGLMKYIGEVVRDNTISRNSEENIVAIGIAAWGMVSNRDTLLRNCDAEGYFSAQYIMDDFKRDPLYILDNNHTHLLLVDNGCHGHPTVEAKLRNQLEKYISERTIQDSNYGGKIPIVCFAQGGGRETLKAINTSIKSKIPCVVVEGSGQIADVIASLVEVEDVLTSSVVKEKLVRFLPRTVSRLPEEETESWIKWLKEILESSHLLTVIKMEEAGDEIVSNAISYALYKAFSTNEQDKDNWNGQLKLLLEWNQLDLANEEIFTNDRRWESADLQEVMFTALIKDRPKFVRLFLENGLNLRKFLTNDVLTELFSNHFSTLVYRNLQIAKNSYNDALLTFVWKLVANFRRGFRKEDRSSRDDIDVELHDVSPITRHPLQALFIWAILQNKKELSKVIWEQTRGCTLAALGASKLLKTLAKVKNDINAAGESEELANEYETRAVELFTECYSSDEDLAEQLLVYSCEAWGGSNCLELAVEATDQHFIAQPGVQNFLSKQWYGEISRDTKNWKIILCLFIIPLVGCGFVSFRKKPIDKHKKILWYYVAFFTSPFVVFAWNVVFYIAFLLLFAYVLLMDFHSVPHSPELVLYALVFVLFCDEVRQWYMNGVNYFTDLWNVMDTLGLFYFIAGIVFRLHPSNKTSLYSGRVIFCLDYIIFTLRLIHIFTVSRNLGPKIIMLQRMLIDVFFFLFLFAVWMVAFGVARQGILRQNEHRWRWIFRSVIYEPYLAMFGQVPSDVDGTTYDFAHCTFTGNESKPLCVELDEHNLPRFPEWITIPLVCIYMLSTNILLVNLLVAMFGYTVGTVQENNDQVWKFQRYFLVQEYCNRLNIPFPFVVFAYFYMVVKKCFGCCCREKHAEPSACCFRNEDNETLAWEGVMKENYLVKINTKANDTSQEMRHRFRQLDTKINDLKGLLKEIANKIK
SMILES,IC50 [µM],inhibition at 0.2 µM [%],% Inh @ 0.2 (μM) [%]
"Cc1c(N(Cc2ccc(F)c(C(F)(F)F)c2)S(=O)(=O)c2ccc(-c3cc(C(F)(F)F)on3)s2)sc2ccccc12 [Compound 329, N-(3-Methyl-benzo[b]thiophen-2-yl)-N-(4-fluoro-3-trifluoromethyl-benzyl)-5-(5-trifluoromethyl-isoxazol-3-yl)-thien-2-ylsulfonamide]",,17,
"Cc1c(N(Cc2ccc(F)c(C(F)(F)F)c2)S(=O)(=O)c2cnc(Cl)c(Br)c2)sc2ccccc12 [Compound 330, N-(3-Methyl-benzo[b]thiophen-2-yl)-N-(4-fluoro-3-trifluoromethyl-benzyl)-5-bromo-6-chloro-pyridin-3-ylsulfonamide]",0.088,80,
"Cc1c(N(Cc2ccc(F)c(C(F)(F)F)c2)S(=O)(=O)c2cnc(Cl)c(Cl)c2)sc2ccccc12 [Compound 331, N-(3-Methyl-benzo[b]thiophen-2-yl)-N-(4-fluoro-3-trifluoromethyl-benzyl)-5,6-dichloro-pyridin-3-ylsulfonamide]",0.09,71,
"CC(=O)Nc1ccc(S(=O)(=O)N(Cc2ccc(F)c(C(F)(F)F)c2)c2sc3ccccc3c2C)cc1Cl [Compound 336, N-(3-Methyl-benzo[b]thiophen-2-yl)-N-(4-fluoro-3-trifluoromethyl-benzyl)-(3-chloro-4-acetamide)-benzenesulfonamide]",0.015,,101
O=S(=O)(c1ccc(Cl)nc1)N(Cc1ccc(F)c(C(F)(F)F)c1)c1sc2ccccc2c1Cl [Compound 338],,95,
"CCCCN(c1cc2ccccc2s1)S(=O)(=O)c1cccnc1 [Compound 340, N-(Benzo[b]thiophen-2-yl)-N-(butyl)-pyridin-3-yl-sulfonamide]",,52,
"CCCCN(c1sc2ccccc2c1C(C)(C)O)S(=O)(=O)c1ccc(C(C)(C)O)cc1 [Compound 341, N-(Butyl)-N-(3-(1-hydroxy-1-methyl-ethyl)-benzo[b]thiophen-2-yl)-4-(2-1-hydroxy-1-methyl-ethyl)-benzenesulfonamide]",0.014,,96
"CCS(=O)(=O)N(Cc1ccc(F)c(C(F)(F)F)c1)c1sc2ccccc2c1CN(C)C [Compound 346, N-(3-Dimethylaminomethyl-benzo[b]thiophen-2-yl)-N-(4-fluoro-3-trifluoromethyl-benzyl)-ethanesulfonamide]",0.0438,95,
"CCS(=O)(=O)N(Cc1ccc(F)c(C(F)(F)F)c1)c1sc2ccccc2c1CNC [Compound 347, N-(4-Fluoro-3-trifluoromethyl-benzyl)-N-(3-methylaminomethyl-benzo[b]thiophen-2-yl)-ethanesulfonamide]",0.0571,95,
"CCCNCc1c(N(Cc2ccc(F)c(C(F)(F)F)c2)S(=O)(=O)CC)sc2ccccc12 [Compound 348, N-(4-Fluoro-3-trifluoromethyl-benzyl)-N-(3-propylaminomethyl-benzo[b]thiophen-2-yl)-ethanesulfonamide]",,60,
"CCS(=O)(=O)N(Cc1ccc(F)c(C(F)(F)F)c1)c1sc2ccccc2c1CN1CCCC1 [Compound 349, N-(4-Fluoro-3-trifluoromethyl-benzyl)-N-(3-pyrrolidin-1-yl-methyl-benzo[b]thiophen-2-yl)-ethanesulfonamide]",,,42
"CS(=O)(=O)CS(=O)(=O)N(Cc1ccc(F)c(C(F)(F)F)c1)c1sc2ccccc2c1Br [Compound 350, N-(3-Bromo-benzo[b]thiophen-2-yl)-N-(4-fluoro-3-trifluoromethyl-benzyl)-C-methanesulfonyl-methanesulfonamide]",,48,
"Cc1nccc(-c2cccc(S(=O)(=O)N(CCCC(F)(F)F)c3sc4ccccc4c3C)c2)n1 [Compound 354, N-(3-Methyl-benzo[b]thiophen-2-yl)-N-(4,4,4-trifluoro-butyl)-3-(2-methyl-pyrimidin-4-yl)-benzenesulfonamide]",0.106,87,
COc1ccc(S(=O)(=O)N(Cc2ccc(F)c(C(F)(F)F)c2)c2sc3ccccc3c2C)c2cccnc12 [Compound 355],0.0296,,92
"COc1ccc(S(=O)(=O)N(CCCC(F)(F)F)c2sc3ccccc3c2C)c2cccnc12 [Compound 356, N-(3-Methyl-benzo[b]thiophen-2-yl)-N-(4,4,4-trifluoro-butyl)-8-methoxyquinolin-5-ylsulfonamide]",0.0416,93,
Cc1c(N(Cc2ccc(F)c(C(F)(F)F)c2)S(=O)(=O)c2ccc(N(C)C)nc2)sc2ccccc12 [Compound 360],,92,

# The next lines start with results.
IC50 [µM],inhibition at 0.2 µM [%],SMILES,% Inh @ 0.2 (μM) [%]
0.035,94,"Cc1c(N(Cc2ccc(F)c(C(F)(F)F)c2)S(=O)(=O)c2cn(C)nc2C(F)(F)F)sc2ccccc12 [Compound 328, N-(3-Methyl-benzo[b]thiophen-2-yl)-N-(4-fluoro-3-trifluoromethyl-benzyl)-1-methyl-3-trifluoromethyl-1H-pyrazol-4-ylsulfonamide]",
0.009,101,"Cc1nnc(-c2cccc(S(=O)(=O)N(Cc3ccc(F)c(C(F)(F)F)c3)c3sc4ccccc4c3C)c2)o1 [Compound 333, N-(3-Methyl-benzo[b]thiophen-2-yl)-N-(4-fluoro-3-trifluoromethyl-benzyl)-3-(5-methyl-[1,3,4]oxadiazol-2-yl)-benzenesulfonamide]",
0.006,98,Cc1c(N(Cc2ccc(F)c(C(F)(F)F)c2)S(=O)(=O)c2ccc(-c3cnco3)cc2)sc2ccccc12 [Compound 334],
0.001,101,"CC(O)c1c(N(Cc2ccc(F)c(C(F)(F)F)c2)S(=O)(=O)c2ccc(C(=O)O)cc2)sc2ccccc12 (centres unmarked) [Compound 335, N-(4-Fluoro-3-trifluoromethyl-benzyl)-N-[3-(1-hydroxy-ethyl)-benzo[b]thiophen-2-yl]-4-carboxybenzenesulfonamide]",
0.019,,Cc1c(N(Cc2ccc(F)c(C(F)(F)F)c2)S(=O)(=O)c2c(Cl)nc3sccn23)sc2ccccc12 [Compound 337],101
0.029,,"O=S(=O)(c1cnccc1Cl)N(Cc1ccc(F)c(C(F)(F)F)c1)c1sc2ccccc2c1Cl [Compound 338, N-(3-Chloro-benzo[b]thiophen-2-yl)-N-(4-fluoro-3-trifluoromethyl-benzyl)-4-chloro-pyridin-3-ylsulfonamide]",
0.0262,94,"CCCCN(c1sc2ccccc2c1C(C)=O)S(=O)(=O)c1ccc(C(=O)OC)cc1 [Compound 339, N-(3-Acetyl-benzo[b]thiophen-2-yl)-N-(butyl)-4-carbomethoxy-benzenesulfonamide]",
0.013,100,"CCCCN(c1sc2ccccc2c1C(C)=O)S(=O)(=O)c1ccc(C(=O)O)cc1 [Compound 342, N-(3-Acetyl-benzo[b]thiophen-2-yl)-N-(butyl)-4-carboxy-benzenesulfonamide]",
0.019,98,"CCCCN(c1sc2ccccc2c1C(C)(C)O)S(=O)(=O)c1ccc(C(=O)O)cc1 [Compound 343, N-(Butyl)-N-(3-(1-hydroxy-1-methyl-ethyl)-benzo[b]thiophen-2-yl)-4-carboxy-benzenesulfonamide]",
0.0127,99,"CCCCN(c1sc2ccccc2c1C(C)(C)O)S(=O)(=O)c1ccc(C(C)=O)cc1 [Compound 344, N-(Butyl)-N-(3-(1-hydroxy-1-methyl-ethyl)-benzo[b]thiophen-2-yl)-4-acetyl-benzenesulfonamide]",
0.0265,99,"CCCCN(c1sc2ccccc2c1Br)S(=O)(=O)c1cccnc1 [Compound 345, N-(3-Bromobenzo[b]thiophen-2-yl)-N-(butyl)-pyridin-3-yl-sulfonamide]",
0.0212,97,"CC(=O)c1ccc(S(=O)(=O)N(CCCC(F)(F)F)c2sc3ccccc3c2C)cc1 [Compound 351, N-(3-Methyl-benzo[b]thiophen-2-yl)-N-(4,4,4-trifluoro-butyl)-4-acetyl-benzenesulfonamide]",
0.0086,96,"CC(=O)c1ccc(S(=O)(=O)N(Cc2ccc(F)c(C(F)(F)F)c2)c2sc3ccccc3c2C)cc1 [Compound 352, N-(3-Methyl-benzo[b]thiophen-2-yl)-N-(4-fluoro-3-trifluoromethyl-benzyl)-4-acetyl-benzenesulfonamide]",
0.0094,98,"Cc1nccc(-c2cccc(S(=O)(=O)N(Cc3ccc(F)c(C(F)(F)F)c3)c3sc4ccccc4c3C)c2)n1 [Compound 353, N-(3-Methyl-benzo[b]thiophen-2-yl)-N-(4-fluoro-3-trifluoromethyl-benzyl)-3-(2-methyl-pyrimidin-4-yl)-benzenesulfonamide]",
0.019,95,"COc1ncccc1S(=O)(=O)N(Cc1ccc(F)c(C(F)(F)F)c1)c1sc2ccccc2c1C [Compound 357, N-(3-Methyl-benzo[b]thiophen-2-yl)-N-(4-fluoro-3-trifluoromethyl-benzyl)-2-methoxy-pyridin-3-ylsulfonamide]",
0.012,92,"Cc1c(N(Cc2ccc(F)c(C(F)(F)F)c2)S(=O)(=O)c2cccnc2N(C)C)sc2ccccc12 [Compound 358, N-(3-Methyl-benzo[b]thiophen-2-yl)-N-(4-fluoro-3-trifluoromethyl-benzyl)-2-dimethylamino-pyridin-3-yl-sulfonamide]",
0.017,93,COc1ccc(S(=O)(=O)N(Cc2ccc(F)c(C(F)(F)F)c2)c2sc3ccccc3c2C)cn1 [Compound 359],
0.041,,"Cc1c(N(Cc2ccc(F)c(C(F)(F)F)c2)S(=O)(=O)c2cnccc2N(C)C)sc2ccccc12 [Compound 360, N-(3-Methyl-benzo[b]thiophen-2-yl)-N-(4-fluoro-3-trifluoromethyl-benzyl)-4-dimethylamino-pyridin-3-yl-sulfonamide]",
